The record followed here is ChEMBL document CHEMBL6092221, “Discovery of a Novel Macrocyclic Noncovalent CDK7 Inhibitor for Cancer Therapy” (J Med Chem, 2024).

Broadly, the IC50 is the concentration that gives 50% inhibition. Broadly, the efflux ratio is the permeability from basolateral to apical divided by that in the opposite direction, in the common usage. The half-life is the time needed for the level to fall by half in the phase considered. In general, bioavailability refers to dose-corrected exposure relative to a reference, in per cent. Higher therefore signals much systemic uptake. In general, Kd refers to a measure of binding affinity in units of concentration. By Cmax is commonly meant the highest concentration seen after dosing. For orientation: AUC(0-t) means exposure summed from dosing to a finite time, without extrapolation to infinity. High values mean more exposure, low ones less exposure. As a reminder, the clearance is the volume of plasma or blood freed of the substance per unit of time. A lower clearance goes with a low capacity for elimination.

The subject of one data set is HCC70. The data set can be described thus: cells. The settings on record: Homo sapiens, HCC70, 72 h.
The next data set deals with CDK7/Cyclin H/MNAT1 (Homo sapiens, UniProt P50613). Nature of the data set: Inhibition of CDK7/CyclinH/MAT1 (unknown origin) in presence of ATP by kinase activity assay. It counts as protein-complex assay.
The next data set deals with OVCAR-3. Nature of the data set: cells. Conditions: Homo sapiens, OVCAR-3, 72 h.
A short description of data set [1]: Efflux ratio of permeability in human Caco-2 cells. It counts as ADME, cell-based. (Caco-2 cells form a polarised layer with tight junctions and transporters.)
Data set [2] can be described thus: Permeability in human Caco-2 cells. The settings on record: read-out: permeability. It counts as ADME, cell-based.
Data set [3] is described as follows: Half life in female Balb/c nude mouse at 5 mg/kg, po. It counts as ADME, organism-based. Conditions: in vivo.
The nature of data set [4]: Oral bioavailability in female Balb/c nude mouse at 5 mg/kg. It counts as ADME, organism-based. Conditions: in vivo.
Data set [5] concerns the target Cyclin-dependent kinase 7/ cyclin H (Homo sapiens, UniProt P50613). Nature of the data set: Binding affinity to CDK7/CyclinH (unknown origin) assessed as dissociation constant by SPR assay. It counts as protein-complex assay. A general note: SPR reads the build-up and loss of mass on a sensor chip optically.
A short description of data set [6]: Cmax in female Balb/c nude mouse at 5 mg/kg, po. It counts as ADME, organism-based. The settings on record: in vivo.
A short description of data set [7]: AUC(0 to t) in female Balb/c nude mouse at 5 mg/kg, po. The settings on record: in vivo. It counts as ADME, organism-based.
Data set [8] can be described thus: Clearance in female Balb/c nude mouse at 1 mg/kg, iv. The class given is ADME, organism-based. The settings on record: in vivo.
The nature of data set [9]: Volume of distribution at steady state in female Balb/c nude mouse at 1 mg/kg, iv. It counts as ADME, organism-based. The settings on record: in vivo, read-out: Vdss.

Cyclin-dependent kinase 7/ cyclin H, sequence (P51946 whole entry): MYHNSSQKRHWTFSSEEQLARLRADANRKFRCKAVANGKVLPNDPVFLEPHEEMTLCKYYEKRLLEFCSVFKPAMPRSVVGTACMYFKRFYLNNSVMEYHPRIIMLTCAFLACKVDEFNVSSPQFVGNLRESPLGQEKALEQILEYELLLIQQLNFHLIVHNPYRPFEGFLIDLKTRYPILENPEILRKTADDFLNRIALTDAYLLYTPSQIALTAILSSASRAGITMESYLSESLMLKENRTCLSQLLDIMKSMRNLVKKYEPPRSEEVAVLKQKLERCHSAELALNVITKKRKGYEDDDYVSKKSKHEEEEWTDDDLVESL
Cyclin-dependent kinase 7/ cyclin H, sequence (P50613 whole entry): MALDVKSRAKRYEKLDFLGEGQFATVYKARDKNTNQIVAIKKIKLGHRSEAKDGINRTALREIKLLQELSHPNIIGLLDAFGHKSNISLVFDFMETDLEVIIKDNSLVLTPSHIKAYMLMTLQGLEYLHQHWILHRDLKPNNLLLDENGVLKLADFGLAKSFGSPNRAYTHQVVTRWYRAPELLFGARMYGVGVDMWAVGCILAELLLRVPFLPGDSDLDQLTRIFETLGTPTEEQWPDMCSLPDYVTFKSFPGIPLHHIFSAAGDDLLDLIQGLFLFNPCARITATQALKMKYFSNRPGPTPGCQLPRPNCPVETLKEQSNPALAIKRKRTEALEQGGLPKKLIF
CDK7/Cyclin H/MNAT1, sequence (P51946 whole entry): as the sequence (P51946 whole entry) above
CDK7/Cyclin H/MNAT1, sequence (P50613 whole entry): as the sequence (P50613 whole entry) above
CDK7/Cyclin H/MNAT1, sequence (P51948 whole entry, further chain): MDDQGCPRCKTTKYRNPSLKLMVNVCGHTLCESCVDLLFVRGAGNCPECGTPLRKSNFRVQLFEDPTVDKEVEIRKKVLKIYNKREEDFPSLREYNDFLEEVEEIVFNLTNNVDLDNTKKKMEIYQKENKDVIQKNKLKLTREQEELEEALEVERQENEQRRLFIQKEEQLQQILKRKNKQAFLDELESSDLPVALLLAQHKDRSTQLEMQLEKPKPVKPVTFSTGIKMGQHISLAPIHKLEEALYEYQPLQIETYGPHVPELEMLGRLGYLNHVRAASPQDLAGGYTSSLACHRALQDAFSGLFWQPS
Description for HCC70: Antiproliferative activity against human HCC70 cells assessed as inhibition of cell proliferation incubated for 72 hrs by celltiter-glo assay
Description for OVCAR-3: Antiproliferative activity against human OVCAR-3 cells assessed as inhibition of cell proliferation incubated for 72 hrs by celltiter-glo assay

As for `CP(C)(=O)c1c2ccc3c(c[nH]c13)-c1nc(ncc1C(F)(F)F)N[C@H]1CC[C@@H](C1)NCCCCCCNC2=O`, the midpoint of inhibition with HCC70, the IC50, lay at 422 nM.
As for `O=C1NCCOCCN2CC[C@@H](C2)Nc2ncc(C(F)(F)F)c(n2)-c2c[nH]c3cc1ccc23`, the half-inhibitory concentration (IC50) in the data set on HCC70 came to 1820 nM; on CDK7/Cyclin H/MNAT1, 11 nM.
Consider `CP(C)(=O)c1c2ccc3c(c[nH]c13)-c1nc(ncc1C(F)(F)F)N[C@H]1CC[C@@H](C1)NCCCCCNC2=O`, for which, in the data set with HCC70, half-maximal inhibition (IC50) was put at 202 nM.
As to `CN1C[C@H](F)CCN(C)[C@H]2CC[C@@H](C2)Nc2ncc(C(F)(F)F)c(n2)-c2c[nH]c3c(P(C)(C)=O)c(ccc23)C1=O`, the IC50 is 62.6 nM in the data set with OVCAR-3 and 44 nM in the data set on HCC70. In addition, in [1], the efflux ratio came to 22.3. Further, in data set [2], the Papp was determined as 0.9 ×10⁻⁶ cm/s.
With `CN1C[C@@H](F)CCN(C)[C@H]2CC[C@@H](C2)Nc2ncc(C(F)(F)F)c(n2)-c2c[nH]c3c(P(C)(C)=O)c(ccc23)C1=O`, the half-life in data set [3] was 2.4 h. For the same molecule, the results for the IC50 in the data set with OVCAR-3 and in the data set on HCC70 were 59.1 nM and 66.5 nM, respectively. For the same molecule, the bioavailability in [4] was determined as 24.3%. Besides, in data set [5], the equilibrium dissociation constant (Kd) worked out at 0.12 nM. Moreover, in [1], the efflux ratio came to 11.2. In [6], this molecule had a Cmax of 170 ng/mL. Besides, the AUC(0-t) in data set [7] is 365 ng·h/mL. Further, the clearance in [8] is 55.3 mL/min/kg. In data set [9], the Vd came to 3.6 L/kg. For the same molecule, the Papp in [2] came to 1.91 ×10⁻⁶ cm/s.
In the case of `O=C1NCCCCN[C@@H]2CC[C@H](C2)Nc2ncc(C(F)(F)F)c(n2)-c2c[nH]c3cc1ccc23`, the Kd in data set [5] was 0.14 nM. In addition, the IC50 in the data set on HCC70 came to 207 nM; at CDK7/Cyclin H/MNAT1, 4.6 nM.
